The subject of this test is SERCA2. The test is described as follows: SERCA2 protein level by Western blot in cultured neonatal rabbit ventricular cardiomyocytes. In kind it is cell-based. Conditions: cultured neonatal rabbit ventricular cardiomyocytes (NRbVCM), 50 nM RU486 for 48 hours, normalized against GAPDH.

Description: Protein level of SERCA2 was analyzed by western blots. All measurements were normalized against GAPDH. Bar graphs represent the averages of three independent experiments plus S.D. in arbitrary unit. * p<0.05. […] Ventricular cardiomyocytes were isolated in neonatal wild type NZW rabbits (3-5 days old, 70-110 g) with enzymatic techniques. The hearts were removed from euthanized rabbits and perfused for 5 to 7 minutes with a free solution containing 140 mM NaCl, 4.4 mM KCl, 1.5 mM MgCl2, 0.33 mM NaH2PO4, 16 mM taurine, 5 mM HEPES, 5 mM pyruvic acid, and 7.5 mM glucose. Subsequently, the hearts were perfused for 10 to 15 minutes with the same solution to which 0.3 mg/ml collagenase was added. The whole ventricles were cut off and minced, and the cells were dispersed in a solution containing 45 mM KCl, 65 mM K-glutamate, 3 mM MgSO4, 15 mM KH2PO4, 16 mM taurine, 10 mM HEPES, 0.5 mM EDTA, and 10 mM glucose (pH 7.3). The cell suspension was filtered through a 100-pm cell strainer and kept at room temperature for one hour. Thereafter, the cells were gradually recovered with MEM, in which Ca^2+ concentration was increased from 100 μM, 500 μM, 1000 μM and 1800 μM. Every well of six-well plate was seed one million cells, cultured in DMEM (Lonza 12-[MUT],) with 7% FBS and 100 μM of BrdU. Medium was changed every 24 to 48 hours. […] The SERCA2 is detected by anti-SERCA2 antibody. […]

Consider `CC#C[C@]1(O)CC[C@H]2[C@@H]3CCC4=CC(=O)CCC4=C3[C@@H](c3ccc(N(C)C)cc3)C[C@@]21C` [RU486, Mifepristone], for which the “increase of the expression of SERCA2 polypeptides” value is given as 60%.

The values above are taken from US20150005269A1, “Treatment of Heart Failure and Sudden Cardiac Death” (Rhode Island Hospital, priority 2012, published 2015).
